In ChEMBL document CHEMBL4765443, “Covalent and noncovalent constraints yield a figure eight-like conformation of a peptide inhibiting the menin-MLL interaction” (Eur J Med Chem, 2020):
pIC50: −log10 of the molar value. Positions of bridges follow the written chain, without caps; N, C: chain ends. Non-standard residues stand in square brackets, D forms with d. Residues, ends and D or L forms follow the SMILES beside them. Phe(3-F) = N[C@@H](Cc1cccc(F)c1)C(=O)O; AllylGly = C=CC[C@H](N)C(=O)O; Ac4c = NC1(C(=O)O)CCC1

What was measured:
[1] = target: T1, Menin/Histone-lysine N-methyltransferase MLL (Homo sapiens, UniProt O00255); assay: Inhibition of Menin-MLL protein-protein interaction (unknown origin) preincubated for 1 hr in presence of FLSN-MLL4-43 peptide followed by compound addition and measured after 1 hr by fluorescence polarization assay
T1 sequence (O00255 whole entry): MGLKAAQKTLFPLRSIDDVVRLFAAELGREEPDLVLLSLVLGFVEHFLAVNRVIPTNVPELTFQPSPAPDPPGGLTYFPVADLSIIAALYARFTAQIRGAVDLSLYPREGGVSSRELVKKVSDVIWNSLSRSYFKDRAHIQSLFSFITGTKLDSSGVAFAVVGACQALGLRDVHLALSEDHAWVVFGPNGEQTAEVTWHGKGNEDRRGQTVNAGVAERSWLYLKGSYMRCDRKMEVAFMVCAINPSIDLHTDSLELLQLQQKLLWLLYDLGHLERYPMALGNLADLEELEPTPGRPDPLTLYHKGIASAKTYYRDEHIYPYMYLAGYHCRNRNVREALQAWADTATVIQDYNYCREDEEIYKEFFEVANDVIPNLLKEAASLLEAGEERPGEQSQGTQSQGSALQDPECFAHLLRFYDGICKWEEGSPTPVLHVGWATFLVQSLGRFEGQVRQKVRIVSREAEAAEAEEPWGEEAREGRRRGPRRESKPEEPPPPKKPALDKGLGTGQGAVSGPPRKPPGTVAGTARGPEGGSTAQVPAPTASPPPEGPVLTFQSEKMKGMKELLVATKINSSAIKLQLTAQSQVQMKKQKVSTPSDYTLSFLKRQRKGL
T1 sequence (Q03164 1-2718 partner limits assumed): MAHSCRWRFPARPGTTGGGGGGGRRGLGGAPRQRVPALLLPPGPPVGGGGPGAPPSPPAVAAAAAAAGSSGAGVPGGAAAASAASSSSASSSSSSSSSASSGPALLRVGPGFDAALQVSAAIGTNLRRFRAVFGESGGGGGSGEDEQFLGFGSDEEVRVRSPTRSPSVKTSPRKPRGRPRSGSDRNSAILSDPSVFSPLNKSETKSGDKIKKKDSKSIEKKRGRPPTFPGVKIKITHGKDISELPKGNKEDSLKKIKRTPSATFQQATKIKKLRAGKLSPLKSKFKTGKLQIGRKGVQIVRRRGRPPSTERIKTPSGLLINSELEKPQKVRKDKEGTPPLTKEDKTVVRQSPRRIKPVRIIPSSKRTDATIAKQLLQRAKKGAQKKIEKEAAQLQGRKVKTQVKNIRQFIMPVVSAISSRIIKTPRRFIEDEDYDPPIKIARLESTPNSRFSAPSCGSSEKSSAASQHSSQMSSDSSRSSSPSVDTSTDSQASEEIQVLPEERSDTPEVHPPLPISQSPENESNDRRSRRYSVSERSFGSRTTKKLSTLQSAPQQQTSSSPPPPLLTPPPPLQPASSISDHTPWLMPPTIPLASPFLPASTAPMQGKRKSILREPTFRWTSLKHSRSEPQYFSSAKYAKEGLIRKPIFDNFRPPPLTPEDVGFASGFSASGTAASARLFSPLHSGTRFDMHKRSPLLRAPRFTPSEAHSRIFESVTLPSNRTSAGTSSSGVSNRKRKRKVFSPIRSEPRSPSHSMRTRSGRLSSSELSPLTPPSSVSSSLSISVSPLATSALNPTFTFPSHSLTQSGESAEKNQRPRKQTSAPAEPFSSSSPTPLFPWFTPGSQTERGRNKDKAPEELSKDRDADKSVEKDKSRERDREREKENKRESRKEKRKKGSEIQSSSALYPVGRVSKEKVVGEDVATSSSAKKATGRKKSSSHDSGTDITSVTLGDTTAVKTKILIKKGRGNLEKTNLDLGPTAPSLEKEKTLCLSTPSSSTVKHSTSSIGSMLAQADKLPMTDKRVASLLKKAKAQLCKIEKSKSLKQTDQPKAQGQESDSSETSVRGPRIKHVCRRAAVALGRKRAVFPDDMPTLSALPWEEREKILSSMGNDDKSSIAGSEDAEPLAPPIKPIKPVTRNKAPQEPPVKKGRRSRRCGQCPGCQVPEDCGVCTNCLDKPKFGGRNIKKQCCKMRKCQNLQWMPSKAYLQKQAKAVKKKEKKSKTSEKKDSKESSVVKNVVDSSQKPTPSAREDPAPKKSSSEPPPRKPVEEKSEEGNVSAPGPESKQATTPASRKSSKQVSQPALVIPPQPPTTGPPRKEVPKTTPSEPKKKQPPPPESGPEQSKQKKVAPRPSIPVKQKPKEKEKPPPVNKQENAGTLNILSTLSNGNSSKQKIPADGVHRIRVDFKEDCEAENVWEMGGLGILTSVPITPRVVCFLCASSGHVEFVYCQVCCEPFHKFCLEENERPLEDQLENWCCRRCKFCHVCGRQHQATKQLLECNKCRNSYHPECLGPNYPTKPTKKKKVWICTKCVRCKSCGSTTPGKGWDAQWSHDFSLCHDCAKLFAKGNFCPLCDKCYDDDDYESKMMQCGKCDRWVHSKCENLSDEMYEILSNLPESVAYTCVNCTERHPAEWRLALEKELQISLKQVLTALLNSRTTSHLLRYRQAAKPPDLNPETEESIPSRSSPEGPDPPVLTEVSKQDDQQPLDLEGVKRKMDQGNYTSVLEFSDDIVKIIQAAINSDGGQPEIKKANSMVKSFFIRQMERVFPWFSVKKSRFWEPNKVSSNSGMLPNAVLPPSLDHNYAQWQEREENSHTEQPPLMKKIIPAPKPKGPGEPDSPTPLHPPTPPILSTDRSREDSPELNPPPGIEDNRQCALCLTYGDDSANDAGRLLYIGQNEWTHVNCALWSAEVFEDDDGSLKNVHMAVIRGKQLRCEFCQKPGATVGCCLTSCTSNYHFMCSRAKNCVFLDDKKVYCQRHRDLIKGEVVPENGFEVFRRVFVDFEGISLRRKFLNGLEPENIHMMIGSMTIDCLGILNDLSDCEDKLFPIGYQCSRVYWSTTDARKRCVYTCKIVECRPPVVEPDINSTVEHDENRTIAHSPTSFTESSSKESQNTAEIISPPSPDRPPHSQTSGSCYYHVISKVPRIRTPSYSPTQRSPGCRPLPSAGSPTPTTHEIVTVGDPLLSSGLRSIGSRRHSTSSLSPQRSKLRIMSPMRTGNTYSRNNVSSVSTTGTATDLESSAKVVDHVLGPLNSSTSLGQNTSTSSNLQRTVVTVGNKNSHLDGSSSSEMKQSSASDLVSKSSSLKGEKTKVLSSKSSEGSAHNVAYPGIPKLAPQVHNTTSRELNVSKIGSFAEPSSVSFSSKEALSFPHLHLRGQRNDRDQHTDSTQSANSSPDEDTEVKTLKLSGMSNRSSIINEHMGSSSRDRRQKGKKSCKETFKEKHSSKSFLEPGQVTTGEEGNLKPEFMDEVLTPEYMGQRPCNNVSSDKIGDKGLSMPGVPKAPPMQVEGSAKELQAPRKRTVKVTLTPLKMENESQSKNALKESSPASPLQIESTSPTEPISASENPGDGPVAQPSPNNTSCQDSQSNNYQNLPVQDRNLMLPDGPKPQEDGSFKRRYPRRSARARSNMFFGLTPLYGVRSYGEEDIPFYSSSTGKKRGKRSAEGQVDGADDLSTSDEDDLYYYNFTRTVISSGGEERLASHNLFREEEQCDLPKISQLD
T1 sequence (Q03164 2719-3969 partner limits assumed): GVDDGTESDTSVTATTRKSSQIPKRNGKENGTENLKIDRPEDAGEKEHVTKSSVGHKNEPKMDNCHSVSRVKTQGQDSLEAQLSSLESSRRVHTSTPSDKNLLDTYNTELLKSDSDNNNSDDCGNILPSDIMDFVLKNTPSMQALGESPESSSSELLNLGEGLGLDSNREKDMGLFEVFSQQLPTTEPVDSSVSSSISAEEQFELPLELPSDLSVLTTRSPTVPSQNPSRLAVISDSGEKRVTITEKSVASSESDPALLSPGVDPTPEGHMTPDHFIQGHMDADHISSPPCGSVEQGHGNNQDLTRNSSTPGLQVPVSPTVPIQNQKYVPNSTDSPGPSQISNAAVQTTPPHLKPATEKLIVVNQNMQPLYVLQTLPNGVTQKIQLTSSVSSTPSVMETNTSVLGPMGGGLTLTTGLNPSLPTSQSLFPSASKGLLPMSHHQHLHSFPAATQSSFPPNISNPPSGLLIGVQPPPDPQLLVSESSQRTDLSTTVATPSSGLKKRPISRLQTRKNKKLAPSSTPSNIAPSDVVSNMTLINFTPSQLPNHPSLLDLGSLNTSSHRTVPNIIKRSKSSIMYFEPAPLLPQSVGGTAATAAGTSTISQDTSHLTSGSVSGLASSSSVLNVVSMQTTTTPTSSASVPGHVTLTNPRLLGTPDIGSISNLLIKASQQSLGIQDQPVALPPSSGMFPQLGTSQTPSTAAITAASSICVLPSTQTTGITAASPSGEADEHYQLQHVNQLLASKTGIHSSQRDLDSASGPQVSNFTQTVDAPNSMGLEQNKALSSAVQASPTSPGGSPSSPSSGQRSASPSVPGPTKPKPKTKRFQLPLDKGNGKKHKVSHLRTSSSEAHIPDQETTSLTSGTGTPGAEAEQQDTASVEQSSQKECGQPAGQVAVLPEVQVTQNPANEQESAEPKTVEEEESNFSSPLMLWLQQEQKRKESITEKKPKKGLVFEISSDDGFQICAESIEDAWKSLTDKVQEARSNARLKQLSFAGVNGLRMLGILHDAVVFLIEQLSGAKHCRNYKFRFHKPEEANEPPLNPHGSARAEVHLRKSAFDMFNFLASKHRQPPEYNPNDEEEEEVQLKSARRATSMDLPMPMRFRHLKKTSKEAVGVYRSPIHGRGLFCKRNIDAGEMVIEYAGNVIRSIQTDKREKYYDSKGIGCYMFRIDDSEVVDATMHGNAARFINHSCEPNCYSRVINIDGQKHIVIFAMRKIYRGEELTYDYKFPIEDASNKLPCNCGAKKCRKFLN

[2] = target: T1, Menin/Histone-lysine N-methyltransferase MLL; assay: Inhibition of Menin-MLL protein-protein interaction (unknown origin) preincubated for 1 hr in presence of FLSN-MBM1 peptide followed by compound addition and measured after 1 hr by fluorescence polarization assay

## CC(=O)N[C@@H](CO)C(=O)N[C@@H](C)C(=O)N[C@@H](CCCNC(=N)N)C(=O)N[C@@H](Cc1c[nH]c2ccccc12)C(=O)N[C@H]1C/C=C\C[C@@H](C(=O)N2CCC[C@H]2C(=O)N[C@@H](CCCNC(=N)N)C(N)=O)NC(=O)C2(CCC2)NC(=O)[C@@H]2CCCN2C(=O)[C@H](Cc2cccc(F)c2)NC1=O (Ac-SARW[AllylGly][Phe(3-F)]P[Ac4c][AllylGly]PR-NH2; staple (Z) 5-9)
[1]
  pIC50: 6.18
[2]
  pIC50: 7.19
